Results reported in patent US4085224A, “Method of increasing feed utilization” (Eli Lilly and Company, priority 1976, dated 1978).

Experiments:
[1] = system: Staphylococcus aureus (H-Heatley) NRRL B-314; test: turbidometric assay on semiautomated system (Autoturb), relative gram-positive activity; type: cell-based; details: relative to A-28086 factor A (standard); nutrient broth pH 7, four hours at 37° C.
Description: The C2 -C6 -acyl ester derivatives of A-28086 factor A also have antibacterial and antifungal activity. In one aspect, these derivatives have increased gram-positive activity. The relative gram-positive activities of certain of these derivatives were compared with the activity of factor A. The compounds were tested by turbidometric assay on a semiautomated system (Autoturb® microbiological assay system, Elanco) described by N. R. Kuzel and F. W. Kavanaugh in J. Pharmaceut. Sci. 60 (5), 764 and 767 (1971). In testing the A-28086 antibiotics, the following test parameters were used: Staphylococcus aureus (H-Heatley) NRRL B-314 in a nutrient broth medium (pH 7), incubated for four hours at 37° C. Test samples and the standard were dissolved in methanol-water (10:90). The standard, A-28086 factor A, was presented to the Autoturb® carrousel at concentrations of 2, 3, 4, and 5 mcg/ml. Test compounds were diluted to contain approximately 3 or 4 mcg of activity per ml, as presented to the carrousel. The relative activities of test compounds, as compared to that of the standard, are given below: […]

ruminal propionic acid = ruminal propionic acid concentration in fistulated steers; type: in vivo; details: mean of five analyses in 14-day treatment
Description: The test reported in Table XII was conducted with mature fistulated steers weighing about 1,000 lbs. each. Two steers were fed a normal diet, and four steers in each treatment group were fed an identical diet to which A-28086 factor A had been added. To each aliquot (100 ml) of rumen fluid taken, 10 percent metaphosphoric acid (100 ml) was added. The samples were allowed to settle, and the supernatants were analyzed by gas chromatographic methods to determine propionic acid concentrations.
The results in Table XII are the mean percent increases in ruminal propionic acid concentration, averaged over five analyses in a 14-day treatment period. Controls had approximately 20 molar percent propionic acid.

## CCC(C(=O)O)C1OC(C(C)C(O)C(C)C(=O)C(CC)C2OC3(C=CC(O)C4(CCC(C)(C5CCC(O)(CC)C(C)O5)O4)O3)C(C)CC2C)C(C)CC1C (stereo not drawn) [A-28086 factor A]
[1]
  Relative G+ Activity: 1
Ruminal propionic acid; 25 mg/day
  Percent Increase Over Control in ruminal propionic acid concentration: 17.4%
Ruminal propionic acid; 100 mg/day
  Percent Increase Over Control in ruminal propionic acid concentration: 54.0%
